Reference: patent US20190365675A1, “COMPOSITIONS FOR THE PREVENTION AND/OR TREATMENT OF ALCOHOL USE DISORDERS” (SERVICIO ANDALUZ DE SALUD, priority 2016, published 2019)

Legend:
Format in all cases: in vivo, Wistar rats
[1] = system: MyD88; experiment: MyD88 protein expression in frontal cortex after ethanol intoxication; conditions: 2-4 h after last ethanol, OEA pre-treatment
Procedure: (§1) The animals were treated with intragastric (i.g.) ethanol 3 times a day using an i.g. cannula (16G needle, Fisher Scientific, Waltham, Mass., USA), following a protocol based on a slightly modified standard 4-day alcohol intoxication pattern (Bernier et al., 2002a, b) (FIG. 1A). The ethanol doses were administered every 8 h for a total time of 4 days. The rats treated with ethanol received an initial loading dose of 5 g/kg of ethanol in a 30% solution (w/v) and then a maximum maintenance dose of 3 g/kg, which were determined based on blood ethanol levels (BEL). This repeated standard alcohol intoxication paradigm kept BEL intoxication relatively constant in a range of sedation/ataxia (190 to 430 mg/dl, Table 3), according to the 6-point alcohol intoxication behavior scale (Majchrowicz, 1975). The mean dose of ethanol/rat/day (days 1-4) was 7.06 g/kg, similar to other studies (Obernier et al., 2002a, b). OEA (5 mg/kg, i.p., except initial dose of 10 mg/kg i.p.; synthesized as described in Giuffrida et al., 2000) was dissolved in the vehicle (5% Tween-80 in saline solution) and injected 10 minutes before each of the administrations of ethanol by an intragastric gavage. […] The autoradiograph was quantified by densitometry (NIH ImageJ® software, National Biosciences, Lincoln, Nebr. USA) and expressed as optical density (OD). […]

[2] = system: COX-2; experiment: COX-2 mRNA in frontal cortex after ethanol intoxication; conditions: ethanol-treated animals (not in vehicle-treated animals), OEA pre-treatment
Procedure: as §1, with “quantitative changes in mRNA levels were estimated” for “autoradiograph was quantified”, “means of RT-PCR, carried out in the presence of the SYBR green primer using a 20-L reaction in a Rotor-Gene (Corbett Research®, Mortlake, NSW, Australia).” for “densitometry (NIH ImageJ® software, National Biosciences, Lincoln, Nebr. USA) and expressed as optical density (OD).”

[3] = system: rats; experiment: Elevated plus maze test during ethanol withdrawal
Procedure: In this third experiment (n=25), the treatment with ethanol intoxication and pre-treatment with OEA applied in experiment 2 was repeated, and the animals were subjected to elevated plus maze test 24 h and 12 days after the last forced administration of ethanol and to the forced swim test 48 h after the ethanol intoxication protocol. The rats were subjected to the forced swim test two days after the last ethanol force-feeding (see FIG. 1C for the experimental design), and specific behaviors were recorded with a digital video camera for 5 minutes. These same rats were also subjected to the elevated plus maze test equipped with infrared light photography (Panlab, Barcelona, Spain) 1 and 12 days after the last ethanol force-feeding, where the animals were allowed to freely explore the maze for 5 minutes. The tests were performed 3 h after the start of the dark phase.

## CCCCCCCC/C=C\CCCCCCCC(=O)NCCO [OEA, oleoylethanolamide]
[1]
  Ethanol-induced increase in expression of MyD88 protein: inhibited
[2]
  Levels of COX-2 mRNA with ethanol: reduced
[3]; 24 h after ethanol intoxication, Dunn's post-hoc test did not find significant effects
  Elevated plus maze: percentage of entries and time in the open arms: clear trend that shows a clear anxiolytic effect
[3]; 12 days after ethanol intoxication
  Elevated plus maze: percentage of entries and time in the open arms: not significant
